In PubChem BioAssay AID1259407 (Chemical Carcinogenesis Research Information System (CCRIS), 2018):
Active and inactive are the calls of the source. How the calls were made is not given here.

Tested on: CCRIS mutagenicity, Ames/micronucleus/aberration tests
Assay: CCRIS mutagenicity studies
[1] = Test System: AMES SALMONELLA TYPHIMURIUM, Strain/Indicator: TA98, Metabolic Activation: NONE, Method: STANDARD PLATE
[2] = Test System: AMES SALMONELLA TYPHIMURIUM, Strain/Indicator: TA100, Metabolic Activation: NONE, Method: STANDARD PLATE
[3] = Test System: MOUSE LYMPHOMA, Strain/Indicator: L5178Y (TK+/TK-), Metabolic Activation: NONE, Method: SUSPENSION/PLATE
[4] = Test System: AMES SALMONELLA TYPHIMURIUM, Strain/Indicator: TA100, Metabolic Activation: RAT, LIVER, S-9, AROCLOR 1254, Method: STANDARD PLATE
[5] = Test System: AMES SALMONELLA TYPHIMURIUM, Strain/Indicator: TA102, Metabolic Activation: NONE, Method: STANDARD PLATE
[6] = Test System: AMES SALMONELLA TYPHIMURIUM, Strain/Indicator: TA1537, Metabolic Activation: NONE, Method: STANDARD PLATE
[7] = Test System: AMES SALMONELLA TYPHIMURIUM, Strain/Indicator: TA1538, Metabolic Activation: NONE, Method: STANDARD PLATE

Measured: mutagenic call

C=C(C)[C@H]1CC=C(C)CC1
active: Test System: MOUSE LYMPHOMA, Strain/Indicator: L5178Y (TK+/TK-), Metabolic Activation: RAT, LIVER, S-9, AROCLOR 1254, Method: SUSPENSION/PLATE active; positive
inactive: End Point: IN VITRO CHROMOSOMAL ABERRATIONS, Test System: CHO CELLS, Metabolic Activation: NONE inactive; negative | End Point: IN VITRO CHROMOSOMAL ABERRATIONS, Test System: CHO CELLS, Metabolic Activation: RAT, LIVER, S-9, AROCLOR 1254 inactive; negative | Test System: AMES SALMONELLA TYPHIMURIUM, Strain/Indicator: TA98, Metabolic Activation: HAMSTER, LIVER, S-9, AROCLOR 1254, Method: PREINCUBATION inactive; negative | Test System: AMES SALMONELLA TYPHIMURIUM, Strain/Indicator: TA98, Metabolic Activation: NONE, Method: PREINCUBATION inactive; negative | [1] inactive; negative | Test System: AMES SALMONELLA TYPHIMURIUM, Strain/Indicator: TA98, Metabolic Activation: RAT, LIVER, S-9, AROCLOR 1254, Method: PREINCUBATION inactive; negative | Test System: AMES SALMONELLA TYPHIMURIUM, Strain/Indicator: TA98, Metabolic Activation: RAT, LIVER, S-9, AROCLOR, Method: STANDARD PLATE inactive; negative | Test System: AMES SALMONELLA TYPHIMURIUM, Strain/Indicator: TA100, Metabolic Activation: HAMSTER, LIVER, S-9, AROCLOR 1254, Method: PREINCUBATION inactive; negative | Test System: AMES SALMONELLA TYPHIMURIUM, Strain/Indicator: TA100, Metabolic Activation: NONE, Method: PREINCUBATION inactive; negative | [2] inactive; negative | Test System: AMES SALMONELLA TYPHIMURIUM, Strain/Indicator: TA100, Metabolic Activation: RAT, LIVER, S-9, AROCLOR 1254, Method: PREINCUBATION inactive; negative | Test System: AMES SALMONELLA TYPHIMURIUM, Strain/Indicator: TA100, Metabolic Activation: RAT, LIVER, S-9, AROCLOR, Method: STANDARD PLATE inactive; negative | Test System: AMES SALMONELLA TYPHIMURIUM, Strain/Indicator: TA1535, Metabolic Activation: HAMSTER, LIVER, S-9, AROCLOR 1254, Method: PREINCUBATION inactive; negative | Test System: AMES SALMONELLA TYPHIMURIUM, Strain/Indicator: TA1535, Metabolic Activation: NONE, Method: PREINCUBATION inactive; negative | Test System: AMES SALMONELLA TYPHIMURIUM, Strain/Indicator: TA1535, Metabolic Activation: RAT, LIVER, S-9, AROCLOR 1254, Method: PREINCUBATION inactive; negative | Test System: AMES SALMONELLA TYPHIMURIUM, Strain/Indicator: TA1537, Metabolic Activation: HAMSTER, LIVER, S-9, AROCLOR 1254, Method: PREINCUBATION inactive; negative | Test System: AMES SALMONELLA TYPHIMURIUM, Strain/Indicator: TA1537, Metabolic Activation: NONE, Method: PREINCUBATION inactive; negative | Test System: AMES SALMONELLA TYPHIMURIUM, Strain/Indicator: TA1537, Metabolic Activation: RAT, LIVER, S-9, AROCLOR 1254, Method: PREINCUBATION inactive; negative | Test System: AMES SALMONELLA TYPHIMURIUM, Strain/Indicator: UTH8413, Metabolic Activation: NONE, Method: STANDARD PLATE inactive; negative | Test System: AMES SALMONELLA TYPHIMURIUM, Strain/Indicator: UTH8413, Metabolic Activation: RAT, LIVER, S-9, AROCLOR, Method: STANDARD PLATE inactive; negative | Test System: AMES SALMONELLA TYPHIMURIUM, Strain/Indicator: UTH8414, Metabolic Activation: NONE, Method: STANDARD PLATE inactive; negative | Test System: AMES SALMONELLA TYPHIMURIUM, Strain/Indicator: UTH8414, Metabolic Activation: RAT, LIVER, S-9, AROCLOR, Method: STANDARD PLATE inactive; negative | [3] inactive; negative

CC1CS(=O)(=O)CCN1/N=C/c1ccc([N+](=O)[O-])o1 (configuration not stated)
active: Test System: AMES SALMONELLA TYPHIMURIUM, Strain/Indicator: TA97, Metabolic Activation: NONE, Method: STANDARD PLATE active; positive | [2] active; positive | [4] active; positive | [5] active; positive
inactive: [1] inactive; negative

CCO[Si](C)(C)OCC
inactive: [1] inactive; negative | Test System: AMES SALMONELLA TYPHIMURIUM, Strain/Indicator: TA98, Metabolic Activation: RAT LIVER S-9, AROCLOR 1254, Method: STANDARD PLATE inactive; negative | [2] inactive; negative | Test System: AMES SALMONELLA TYPHIMURIUM, Strain/Indicator: TA100, Metabolic Activation: RAT LIVER S-9, AROCLOR 1254, Method: STANDARD PLATE inactive; negative | Test System: AMES SALMONELLA TYPHIMURIUM, Strain/Indicator: TA1535, Metabolic Activation: NONE, Method: STANDARD PLATE inactive; negative | Test System: AMES SALMONELLA TYPHIMURIUM, Strain/Indicator: TA1535, Metabolic Activation: RAT LIVER S-9, AROCLOR 1254, Method: STANDARD PLATE inactive; negative | [6] inactive; negative | Test System: AMES SALMONELLA TYPHIMURIUM, Strain/Indicator: TA1537, Metabolic Activation: RAT LIVER S-9, AROCLOR 1254, Method: STANDARD PLATE inactive; negative | [7] inactive; negative | Test System: AMES SALMONELLA TYPHIMURIUM, Strain/Indicator: TA1538, Metabolic Activation: RAT LIVER S-9, AROCLOR 1254, Method: STANDARD PLATE inactive; negative | Test System: E. COLI, Strain/Indicator: P3078 POLA, Metabolic Activation: NONE, Method: SPOT TEST inactive; negative | Test System: E. COLI, Strain/Indicator: P3078 POLA, Metabolic Activation: RAT LIVER S-9, AROCLOR 1254, Method: SPOT TEST inactive; negative | Test System: E. COLI, Strain/Indicator: W3110, Metabolic Activation: NONE, Method: SPOT TEST inactive; negative | Test System: E. COLI, Strain/Indicator: W3110, Metabolic Activation: RAT LIVER S-9, AROCLOR 1254, Method: SPOT TEST inactive; negative | [3] inactive; negative | Test System: MOUSE LYMPHOMA, Strain/Indicator: L5178Y (TK+/TK-), Metabolic Activation: RAT, LIVER, S-9, Method: SUSPENSION/PLATE inactive; negative

Cc1ccc(C)c(N=Nc2c(O)ccc3ccccc23)c1
inactive: [1] inactive; negative | Test System: AMES SALMONELLA TYPHIMURIUM, Strain/Indicator: TA98, Metabolic Activation: RAT, LIVER, S-9, Method: STANDARD PLATE inactive; negative | [2] inactive; negative | Test System: AMES SALMONELLA TYPHIMURIUM, Strain/Indicator: TA100, Metabolic Activation: RAT, LIVER, S-9, Method: STANDARD PLATE inactive; negative

CNc1ccc(NCCO)c2c1C(=O)c1ccccc1C2=O
inactive: [1] inactive; negative | [2] inactive; negative | [4] inactive; negative | [5] inactive; negative | Test System: AMES SALMONELLA TYPHIMURIUM, Strain/Indicator: TA104, Metabolic Activation: NONE, Method: STANDARD PLATE inactive; negative | [6] inactive; negative | [7] inactive; negative
active: Test System: AMES SALMONELLA TYPHIMURIUM, Strain/Indicator: TA98, Metabolic Activation: RAT, LIVER, S-9, AROCLOR 1254, Method: STANDARD PLATE active; positive | Test System: AMES SALMONELLA TYPHIMURIUM, Strain/Indicator: TA102, Metabolic Activation: RAT, LIVER, S-9, AROCLOR 1254, Method: STANDARD PLATE active; positive | Test System: AMES SALMONELLA TYPHIMURIUM, Strain/Indicator: TA1537, Metabolic Activation: RAT, LIVER, S-9, AROCLOR 1254, Method: STANDARD PLATE active; positive | Test System: MOUSE LYMPHOMA, Strain/Indicator: L5178Y (TK+/TK-), Metabolic Activation: NONE, Method: SUSPENSION PLATE active; positive | [3] active; positive | Test System: MOUSE LYMPHOMA, Strain/Indicator: L5178Y (TK+/TK-), Metabolic Activation: RAT, LIVER, S-9, AROCLOR 1254, Method: SUSPENSION PLATE active; positive
